For experiment [1], the system named is male ddY mouse. Briefly: Analgesic activity test by mouse acetic acid writhing method. Particulars: subcutaneous, 15 minutes before i.p. 0.6% acetic acid; dosage to halve the number of writhing response. It counts as in vivo. How it is done:
To each male ddY mouse, each test compound or the vehicle was subcutaneously administered in an administration volume of 0.1 mL/10 g body weight. Fifteen minutes later, 0.1 mL/10 g body weight of aqueous 0.6% (v/v) acetic acid solution was intraperitoneally administered. From 10 minutes after the administration of the acetic acid solution, the number of writhing response (i.e., the behavior to bend the body backward and/or twist the body) during 10 minutes was counted, and the analgesic activity was evaluated based on the number of writhing response. […] 10% Aqueous dimethylsulfoxide (DMSO) was used as a vehicle for test compounds 1, 2, 3, 4, 5, 6, 7, 8, 9, 10, 11, 12, 13, 14, 15, 16, 17, 18, 19, 20, 21 and 22. 0.1% Citric acid/aqueous 5% xylitol was used as a vehicle for test compounds 10f.

Experiment [2] concerns female Sprague-Dayley rats. Nature of the experiment: Activity to relieve cystalgia caused by hyperextension of bladder, myoelectric activity of external oblique abdominal muscle as index. Format: in vivo, rat. The following applies: iv; for Rate of Inhibition of Myoelectric Activity (Number of Spikes) of External Oblique Abdominal Muscle (vs. before administration, %): anesthetized rats, mean ± standard error. How it is done:
The activity of Compound 10f to relieve cystalgia was evaluated using the myoelectric activity of external oblique abdominal muscle in hyperextension of bladder of anesthetized rats as an index of the cystalgia. In the experiments, 14 to 15-week old female Sprague-Dayley rats (CLEA Japan, Inc.) weighing 300 to 360 g were used.
Under halothane (2.5-4%) anesthesia, a polyethylene catheter (PE-50) for cystometry was inserted into the bladder transurethrally. Further, a polyethylene catheter (PE-100) for filling physiological saline was inserted into the bladder from the apex of bladder dome. […] A catheter for drug administration was indwelled in the femoral vein. The skin in the lateral ventral part was incised and a bipolar electrode for electromyographic measurement was inserted into the external oblique abdominal muscle and indwelled therein. A reservoir preliminarily filled with physiological saline was connected to the catheter indwelled in the bladder and held at a prescribed height to extend the bladder. The extension stimulus was continued for 20 seconds. In cases where the stimulation is repeatedly given, the interval between stimulation was 3 minutes. A bipolar electrode (needle electrode for electroencephalography, NIHON KOHDEN) was connected to an electromyograph amplifier (EMG100C, Biopac Systems), and a high cut filter (5 kHz) and low cut filter (100 Hz) were applied. Thereafter, the signals were taken into an AD converter (MP-150WSW, Biopac Systems) and into a computer at 1 kHz, and the myoelectric activity was recorded using the special software (AcqKnowledge 3.8.1, Biopac Systems). The intravesical pressure was measured using a pressure transducer (AP641G, NIHON KOHDEN) and a general purpose amplifier (DA100C, Biopac Systems). The halothane level was adjusted such that a stable myoelectric activity was obtained by extension at a pressure of 50 cmH2O, and then the drug was intravenously administered. Thereafter, hyperextension of bladder was repeated for at least 20 minutes.
The drug was dissolved in aqueous 5% xylitol-0.02% citric acid solution, and the administration volume was 0.5 mL/kg. The mean of the number of spikes during the twice hyperextension of bladder immediately before the drug administration was defined as the value before drug administration. Taking the value before the drug administration as 100%, the change in the number of spikes after administration of the drug was normalized. The mean of the change in the number of spikes by the consecutive three times hyperextension carried out immediately before or after 15-minutes time point from the drug administration was calculated, and the drug effect was analyzed by Williams test.

Experiment [3] concerns male ddY mouse. The following applies: literature, Pain. Vol 50, 223-229 (1992); cited from earlier work.

In turn, `O=C1c2ccccc2C(=O)N1[C@@H]1CC[C@@]2(O)[C@H]3Cc4ccc(O)c5c4[C@@]2(CCN3CC2CC2)[C@H]1O5` [Compound 10f, N-(17-cyclopropylmethyl-4,5α-epoxy-3,14-dihydroxy-morphinan-6β-yl)-phthalimide] registered an ED50 in the experiment with male ddY mouse [1] of 0.037 mg/kg. Moreover, the “Rate of Inhibition of Myoelectric Activity (Number of Spikes) of External Oblique Abdominal Muscle (vs. before administration, %)” value in experiment [2] (0.003 mg/kg) turned out to be 5.9 ± 11.5%; in experiment [2] (0.01 mg/kg), 42.4 ± 21.1 %; in experiment [2] (0.03 mg/kg), 64.3 ± 17.2 %. Further, the “inhibition of the myoelectric activity (in words)” value in experiment [2] (0.003-0.03 mg/kg) is “dose-dependently and significantly inhibited”. This compound also displayed a minimum effective dose in experiment [2] (inhibition of myoelectric activity) of 0.01 mg/kg.

Take `CN1CC[C@]23c4c5ccc(O)c4O[C@H]2[C@@H](O)C=C[C@H]3[C@H]1C5` [morphine]: in the experiment with male ddY mouse [3], the “effect on pain in PGF2α-induced allodynia model (in words)” value was “ineffective”.

Take `O=C(O)C(O)C(O)C(=O)O.O=C1c2ccccc2C(=O)N1[C@@H]1CC[C@@]2(O)[C@H]3Cc4ccc(O)c5c4[C@@]2(CCN3CC2CC2)[C@H]1O5` [Compound 18, N-(17-cyclopropylmethyl-4,5α-epoxy-3,14-dihydroxy-morphinan-6β-yl)-phthalimide.tartaric acid salt]: in the experiment with male ddY mouse [1], the ED50 turned out to be 0.019 mg/kg.
